The supplement of paper PMC4862054

These compounds were tested on CAL-148 (assay: normalised viability (% of control), CellTiter-Blue; higher = more viable cells (about 100 = DMSO control)). Settings: 25 nM; incubation time: 72 h.
Experimental: (§1)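 DSRT, CellTiter-Blue viability, 72 h incubation. Signal is normalised to DMSO and benzethonium chloride controls. Value is the normalised response at dose 7.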
For `CC(=O)Nc1cccc(-n2c(=O)n(C3CC3)c(=O)c3c(Nc4ccc(I)cc4F)n(C)c(=O)c(C)c32)c1`, the normalised viability was 91.2%.

Same assay, conditions: 100 nM; incubation time: 72 h
For `COc1cc2c(Oc3ccc4[nH]c(C)cc4c3F)ncnc2cc1OCCCN1CCCC1` [Cediranib], the normalised viability was 108%. Work on `C=CC(=O)N1CCC[C@@H](n2nc(-c3ccc(Oc4ccccc4)cc3)c3c(N)ncnc32)C1` yielded a normalised viability of 98%. Compound `Cc1cnc(NC(=O)Nc2cc(Br)c(C)cc2OC[C@@H]2CNCCO2)cn1` has a normalised viability of 101%.

Same assay, conditions: 1000 nM; incubation time: 72 h
Compound `Nc1nc2[nH]cc(CCc3ccc(C(=O)N[C@@H](CCC(=O)O)C(=O)O)cc3)c2c(=O)[nH]1` [Pemetrexed] has a normalised viability of 115%. Compound `C[C@H]1C[C@@H]2[C@H]([C@@H](O)C[C@@]3(C)[C@H]2CC[C@]3(O)C(=O)CO)[C@@]2(C)C=CC(=O)C=C12` [Methylprednisolone] has a normalised viability of 108%. Compound `COc1cc([C@@H]2c3cc4c(cc3[C@@H](O[C@@H]3O[C@@H]5CO[C@@H](c6cccs6)O[C@H]5[C@H](O)[C@H]3O)[C@H]3COC(=O)[C@H]23)OCO4)cc(OC)c1O` [Teniposide] has a normalised viability of 30.3%. In the case of `CCc1cncnc1N1CCN(Cc2nc3ccc(C(F)(F)F)cc3[nH]2)CC1`, the normalised viability is reported as 124%. For `Oc1ncc(N(CCCl)CCCl)c(O)n1` [Uracil mustard], the normalised viability was 111%. Work on `COc1cc2nccc(Oc3ccc(NC(=O)Nc4cc(C)on4)c(Cl)c3)c2cc1OC` [Tivozanib] yielded a normalised viability of 98.7%. Compound `O=C(Cc1ccc(-c2ccc(OCCN3CCOCC3)cc2)cn1)NCc1ccccc1` [KX2-391] has a normalised viability of 18.4%. `CC1=C(/C=C/C(C)=C/C=C/C(C)=C/C(=O)O)C(C)(C)CCC1` [Tretinoin] gave a normalised viability of 81.2%.

What follows are compounds tested on MDA-MB-453 in the same assay as above. Settings: 25 nM; incubation time: 72 h.
Experimental: as §1
In the case of `CC(=O)Nc1cccc(-n2c(=O)n(C3CC3)c(=O)c3c(Nc4ccc(I)cc4F)n(C)c(=O)c(C)c32)c1`, the normalised viability is reported as 71.8%.

Same assay, conditions: 100 nM; incubation time: 72 h
For `COc1cc2c(Oc3ccc4[nH]c(C)cc4c3F)ncnc2cc1OCCCN1CCCC1` [Cediranib], the normalised viability was 92%. `C=CC(=O)N1CCC[C@@H](n2nc(-c3ccc(Oc4ccccc4)cc3)c3c(N)ncnc32)C1` showed a normalised viability of 39.5%. Work on `Cc1cnc(NC(=O)Nc2cc(Br)c(C)cc2OC[C@@H]2CNCCO2)cn1` yielded a normalised viability of 88.7%.

Same assay, conditions: 1000 nM; incubation time: 72 h
Compound `Nc1nc2[nH]cc(CCc3ccc(C(=O)N[C@@H](CCC(=O)O)C(=O)O)cc3)c2c(=O)[nH]1` [Pemetrexed] has a normalised viability of 104%. With `C[C@H]1C[C@@H]2[C@H]([C@@H](O)C[C@@]3(C)[C@H]2CC[C@]3(O)C(=O)CO)[C@@]2(C)C=CC(=O)C=C12` [Methylprednisolone] the normalised viability was 69.3%. In the case of `COc1cc([C@@H]2c3cc4c(cc3[C@@H](O[C@@H]3O[C@@H]5CO[C@@H](c6cccs6)O[C@H]5[C@H](O)[C@H]3O)[C@H]3COC(=O)[C@H]23)OCO4)cc(OC)c1O` [Teniposide], the normalised viability is reported as 73.1%. Work on `CCc1cncnc1N1CCN(Cc2nc3ccc(C(F)(F)F)cc3[nH]2)CC1` yielded a normalised viability of 96.5%. With `Oc1ncc(N(CCCl)CCCl)c(O)n1` [Uracil mustard] the normalised viability was 101%. `COc1cc2nccc(Oc3ccc(NC(=O)Nc4cc(C)on4)c(Cl)c3)c2cc1OC` [Tivozanib] showed a normalised viability of 91.7%. In the case of `O=C(Cc1ccc(-c2ccc(OCCN3CCOCC3)cc2)cn1)NCc1ccccc1` [KX2-391], the normalised viability is reported as 25%. In the case of `CC1=C(/C=C/C(C)=C/C=C/C(C)=C/C(=O)O)C(C)(C)CCC1` [Tretinoin], the normalised viability is reported as 117%.

What follows are compounds tested on CAL-85-1 in the same assay as above. Settings: 25 nM; incubation time: 72 h.
Experimental: as §1
In the case of `CC(=O)Nc1cccc(-n2c(=O)n(C3CC3)c(=O)c3c(Nc4ccc(I)cc4F)n(C)c(=O)c(C)c32)c1`, the normalised viability is reported as 60.4%.

Same assay, conditions: 100 nM; incubation time: 72 h
Compound `COc1cc2c(Oc3ccc4[nH]c(C)cc4c3F)ncnc2cc1OCCCN1CCCC1` [Cediranib] has a normalised viability of 95.6%. In the case of `C=CC(=O)N1CCC[C@@H](n2nc(-c3ccc(Oc4ccccc4)cc3)c3c(N)ncnc32)C1`, the normalised viability is reported as 77.3%. With `Cc1cnc(NC(=O)Nc2cc(Br)c(C)cc2OC[C@@H]2CNCCO2)cn1` the normalised viability was 85.9%.

Same assay, conditions: 1000 nM; incubation time: 72 h
Compound `Nc1nc2[nH]cc(CCc3ccc(C(=O)N[C@@H](CCC(=O)O)C(=O)O)cc3)c2c(=O)[nH]1` [Pemetrexed] has a normalised viability of 72.3%. With `C[C@H]1C[C@@H]2[C@H]([C@@H](O)C[C@@]3(C)[C@H]2CC[C@]3(O)C(=O)CO)[C@@]2(C)C=CC(=O)C=C12` [Methylprednisolone] the normalised viability was 97%. `COc1cc([C@@H]2c3cc4c(cc3[C@@H](O[C@@H]3O[C@@H]5CO[C@@H](c6cccs6)O[C@H]5[C@H](O)[C@H]3O)[C@H]3COC(=O)[C@H]23)OCO4)cc(OC)c1O` [Teniposide] showed a normalised viability of 64.6%. `CCc1cncnc1N1CCN(Cc2nc3ccc(C(F)(F)F)cc3[nH]2)CC1` was tested, and the normalised viability was 101%. Work on `Oc1ncc(N(CCCl)CCCl)c(O)n1` [Uracil mustard] yielded a normalised viability of 93.8%. With `COc1cc2nccc(Oc3ccc(NC(=O)Nc4cc(C)on4)c(Cl)c3)c2cc1OC` [Tivozanib] the normalised viability was 98.3%. `O=C(Cc1ccc(-c2ccc(OCCN3CCOCC3)cc2)cn1)NCc1ccccc1` [KX2-391] showed a normalised viability of 33.9%. With `CC1=C(/C=C/C(C)=C/C=C/C(C)=C/C(=O)O)C(C)(C)CCC1` [Tretinoin] the normalised viability was 82.2%.

What follows are compounds tested on HDQ-P1 in the same assay as above. Settings: 25 nM; incubation time: 72 h.
Experimental: as §1
Compound `CC(=O)Nc1cccc(-n2c(=O)n(C3CC3)c(=O)c3c(Nc4ccc(I)cc4F)n(C)c(=O)c(C)c32)c1` has a normalised viability of 63.6%.

Same assay, conditions: 100 nM; incubation time: 72 h
With `COc1cc2c(Oc3ccc4[nH]c(C)cc4c3F)ncnc2cc1OCCCN1CCCC1` [Cediranib] the normalised viability was 95.9%. `C=CC(=O)N1CCC[C@@H](n2nc(-c3ccc(Oc4ccccc4)cc3)c3c(N)ncnc32)C1` was tested, and the normalised viability was 111%. Compound `Cc1cnc(NC(=O)Nc2cc(Br)c(C)cc2OC[C@@H]2CNCCO2)cn1` has a normalised viability of 110%.

Same assay, conditions: 1000 nM; incubation time: 72 h
Compound `Nc1nc2[nH]cc(CCc3ccc(C(=O)N[C@@H](CCC(=O)O)C(=O)O)cc3)c2c(=O)[nH]1` [Pemetrexed] has a normalised viability of 94.8%. Work on `C[C@H]1C[C@@H]2[C@H]([C@@H](O)C[C@@]3(C)[C@H]2CC[C@]3(O)C(=O)CO)[C@@]2(C)C=CC(=O)C=C12` [Methylprednisolone] yielded a normalised viability of 109%.
